Source: article PMC5884652, “New antimicrobial peptide kills drug-resistant pathogens without detectable resistance” (Oncotarget, 2018)
Converted amounts (≈) assume the structure as drawn.

Experiments:
Experiment in all cases: microbe, parasite or virus in culture
S. aureus 0027 = type: cell-based, Staphylococcus aureus; settings: Staphylococcus aureus, 0027; pH (I or II) not given; 10 mM sodium phosphate buffer, 10% LB; 37° C, 24 h; mean of 3 experiments
Source text: (§1) The method for peptide synthesis has been described in detail previously. E. coli ATCC 25922 (LB media), P. aeruginosa ATCC 15692 (NB+0.5% NaCl media), Listeria monocytogenes ATCC 3710 (LB media), Staphylococcus epidermidis ATCC 12228 (LB media), and S. aureus ATCC 29213 (TSB media) were obtained from the American Type Culture Collection (Manassas, VA, USA). Bacillus subtilis KCTC 1998 (LB media), Salmonella typhimurium KCTC 1926 (NB media), and Proteus vulgaris KCTC 2433 (NB media) were obtained from the Korean Collection for Type Cultures (Jeollabuk-do, Korea). E. coli CCARM 1238 was received from the Culture Collection of Antibiotic Resistant Microbes at Seoul Women’s University, Korea. Drug-resistant P. aeruginosa 3543, 3904, 3547, and 4007 and S. aureus 3126, 0027, 5157, 1635, 4761, 5159, 3359, 2122, 1630, 1870, 3511, 5156, and 3518 were resistant strains isolated from patients with otitis media in a Chonnam National University’s hospital.
(§2) The antibacterial activities of AMPs (melittin, clavaspirin, and its analogs) and conventional antibiotic drugs (erythromycin, gentamicin, ampicillin, and piperacidin) were determined using microdilution assays. Bacterial cells were cultured at 37° C in appropriate culture media at pH 5.5 or pH 7.4 until collection during the mid-log phase and suspended in 10 mM sodium phosphate buffer (pH 5.5 or pH 7.4) supplemented with 10% culture medium. Thereafter, 2× serial dilutions of each peptide (0.25–128 μM) or antibiotic (0.25–256 μM) were added to sterile 96-well plates, and aliquots of cell suspension (5 × 10^5 colony forming units (cfu)/mL) were seeded into each well. The samples were then incubated at 37° C for 24 h. At the end of the incubation, the minimum inhibitory concentrations (MICs) of the peptides were determined using a VERSA Max microplate reader (Molecular Devices Co., Sunnyvale, CA, USA) at a wavelength of 600 nm. […] MIC values were calculated as the mean of 3 independent experiments conducted in triplicate.

S. aureus 3518 = type: cell-based, Staphylococcus aureus; settings: Staphylococcus aureus, 3518; pH (I or II) not given; 10 mM sodium phosphate buffer, 10% LB; 37° C, 24 h; mean of 3 experiments
Source text: as §1, §2

S. aureus 3126 = type: cell-based, Staphylococcus aureus; settings: Staphylococcus aureus, 3126; pH (I or II) not given; 10 mM sodium phosphate buffer, 10% LB; 37° C, 24 h; mean of 3 experiments
Source text: as §1, §2

S. aureus 3511 = type: cell-based, Staphylococcus aureus; settings: Staphylococcus aureus, 3511; pH (I or II) not given; 10 mM sodium phosphate buffer, 10% LB; 37° C, 24 h; mean of 3 experiments
Source text: as §1, §2

S. aureus 1630 = type: cell-based, Staphylococcus aureus; settings: Staphylococcus aureus, 1630; pH (I or II) not given; 10 mM sodium phosphate buffer, 10% LB; 37° C, 24 h; mean of 3 experiments
Source text: as §1, §2

S. aureus 5157 = type: cell-based, Staphylococcus aureus; settings: Staphylococcus aureus, 5157; pH (I or II) not given; 10 mM sodium phosphate buffer, 10% LB; 37° C, 24 h; mean of 3 experiments
Source text: as §1, §2

S. aureus 3359 = type: cell-based, Staphylococcus aureus; settings: Staphylococcus aureus, 3359; pH (I or II) not given; 10 mM sodium phosphate buffer, 10% LB; 37° C, 24 h; mean of 3 experiments
Source text: as §1, §2

S. aureus 5159 = type: cell-based, Staphylococcus aureus; settings: Staphylococcus aureus, 5159; pH (I or II) not given; 10 mM sodium phosphate buffer, 10% LB; 37° C, 24 h; mean of 3 experiments
Source text: as §1, §2

S. aureus 1870 = type: cell-based, Staphylococcus aureus; settings: Staphylococcus aureus, 1870; pH (I or II) not given; 10 mM sodium phosphate buffer, 10% LB; 37° C, 24 h; mean of 3 experiments
Source text: as §1, §2

S. aureus 2122 = type: cell-based, Staphylococcus aureus; settings: Staphylococcus aureus, 2122; pH (I or II) not given; 10 mM sodium phosphate buffer, 10% LB; 37° C, 24 h; mean of 3 experiments
Source text: as §1, §2

S. aureus 5156 = type: cell-based, Staphylococcus aureus; settings: Staphylococcus aureus, 5156; pH (I or II) not given; 10 mM sodium phosphate buffer, 10% LB; 37° C, 24 h; mean of 3 experiments
Source text: as §1, §2

S. aureus 1635 = type: cell-based, Staphylococcus aureus; settings: Staphylococcus aureus, 1635; pH (I or II) not given; 10 mM sodium phosphate buffer, 10% LB; 37° C, 24 h; mean of 3 experiments
Source text: as §1, §2

S. aureus 4761 = type: cell-based, Staphylococcus aureus; settings: Staphylococcus aureus, 4761; pH (I or II) not given; 10 mM sodium phosphate buffer, 10% LB; 37° C, 24 h; mean of 3 experiments
Source text: as §1, §2

E. coli CCARM1238 = type: cell-based, Escherichia coli; settings: Escherichia coli, CCARM1238; pH (I or II) not given; 10 mM sodium phosphate buffer, 10% LB; 37° C, 24 h; mean of 3 experiments
Source text: as §1, §2

P. aeruginosa 3547 = type: cell-based, Pseudomonas aeruginosa; settings: Pseudomonas aeruginosa, 3547; pH (I or II) not given; 10 mM sodium phosphate buffer, 10% LB; 37° C, 24 h; mean of 3 experiments
Source text: as §1, §2

P. aeruginosa 4007 = type: cell-based, Pseudomonas aeruginosa; settings: Pseudomonas aeruginosa, 4007; pH (I or II) not given; 10 mM sodium phosphate buffer, 10% LB; 37° C, 24 h; mean of 3 experiments
Source text: as §1, §2

P. aeruginosa 3904 = type: cell-based, Pseudomonas aeruginosa; settings: Pseudomonas aeruginosa, 3904; pH (I or II) not given; 10 mM sodium phosphate buffer, 10% LB; 37° C, 24 h; mean of 3 experiments
Source text: as §1, §2

P. aeruginosa 3543 = type: cell-based, Pseudomonas aeruginosa; settings: Pseudomonas aeruginosa, 3543; pH (I or II) not given; 10 mM sodium phosphate buffer, 10% LB; 37° C, 24 h; mean of 3 experiments
Source text: as §1, §2

Row | MIC (E. coli CCARM1238) [µM] | MIC (P. aeruginosa 3547) [µM] | MIC (P. aeruginosa 4007) [µM] | MIC (P. aeruginosa 3904) [µM] | MIC (P. aeruginosa 3543) [µM] | Structure (SMILES) | MIC (S. aureus 0027) [µM] | MIC (S. aureus 3518) [µM] | MIC (S. aureus 3126) [µM] | MIC (S. aureus 3511) [µM] | MIC (S. aureus 1630) [µM] | MIC (S. aureus 5157) [µM] | MIC (S. aureus 3359) [µM] | MIC (S. aureus 5159) [µM] | MIC (S. aureus 1870) [µM] | MIC (S. aureus 2122) [µM] | MIC (S. aureus 5156) [µM] | MIC (S. aureus 1635) [µM] | MIC (S. aureus 4761) [µM]
1 | – | – | – | – | – | CNC(C)C1CCC(N)C(OC2C(N)CC(N)C(OC3OCC(C)(O)C(NC)C3O)C2O)O1 (stereo not drawn) [gentamicin] | 64 (≈ 30.6 µg/mL) | > 256 | 32 (≈ 15.3 µg/mL) | > 256 | 64 (≈ 30.6 µg/mL) | 16 (≈ 7.64 µg/mL) | 64 (≈ 30.6 µg/mL) | 16 (≈ 7.64 µg/mL) | 16 (≈ 7.64 µg/mL) | 128 (≈ 61.1 µg/mL) | > 256 | > 256 | 32 (≈ 15.3 µg/mL)
2 | > 800 | 400 (≈ 140 µg/mL) | > 800 | > 800 | > 800 | CC1(C)S[C@@H]2[C@H](NC(=O)[C@H](N)c3ccccc3)C(=O)N2[C@H]1C(=O)O [ampicillin] | – | – | – | – | – | – | – | – | – | – | – | – | –
